From ChEMBL document CHEMBL1201862, “PubChem BioAssay data set” (2004) come the findings set out here.

Some test systems named below: NCI-H23; Hs-578T; Malme-3M; SK-MEL-5; IGROV-1; HCT-15; SK-MEL-28; T47D; NCI-H522; SNB-75; UO-31; SW-620; HOP-92; SF-295; OVCAR-3; RXF 393; EKVX; HOP-62; SF-539; RPMI-8226.
Test in all cases: NCI-60 cell line screen, 48 h

Structures are written as SMILES.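 The compound was tested at five concentrations on cells cultured in 96-well plates, with a 48-hour exposure period. The concentration for 50% growth inhibition is given as GI50.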 Active and inactive are the calls of the source. Cut-off read from the data, not from the text of the source: active = GI50 up to about 1.1 µM and inactive = higher.

Take `O=C(NCCCN(CCCCN(CCCNC(=O)c1cc(S(=O)(=O)O)cc(O)c1O)C(=O)c1cc(S(=O)(=O)O)cc(O)c1O)C(=O)c1cc(S(=O)(=O)O)cc(O)c1O)c1cc(S(=O)(=O)O)cc(O)c1O`: the GI50 in the test on NCI-H23 was > 100 µM (inactive); with Hs-578T it was > 100 µM (inactive); in the test on Malme-3M, > 100 µM (inactive); in the test on SK-MEL-5, > 100 µM (inactive); in the test on IGROV-1, > 100 µM (inactive); in the test on HCT-15 it was more than 100 µM. For the same compound, the GI50 with SK-MEL-28, in the test on T47D, with NCI-H522, with SNB-75, with UO-31 and in the test with SW-620 was > 100 µM (inactive) in each case. Moreover, the GI50 in the test on HOP-92 was > 100 µM (inactive).

With `O=c1c2ccccc2n2c(-c3ccccc3O)nnc2n1-c1ccccc1`, the GI50 with SF-295, in the test with NCI-H23, with OVCAR-3, in the test on RXF 393, in the test with Malme-3M and in the test on SK-MEL-5 was > 100 µM (inactive) throughout. Also, the GI50 in the test on IGROV-1 is > 100 µM (inactive); in the test with HCT-15 it was more than 100 µM; in the test on SK-MEL-28 it was > 100 µM (inactive); in the test on T47D, > 100 µM (inactive); in the test on NCI-H522, > 100 µM (inactive); in the test with SNB-75, > 100 µM (inactive). Also, the GI50 with EKVX was > 100 µM (inactive); with UO-31, 2.76 µM (inactive); with SW-620 it was > 100 µM (inactive); in the test on HOP-92 it was > 100 µM (inactive); in the test with HOP-62, > 100 µM (inactive); in the test with SF-539, > 100 µM (inactive).

For `Cc1ccc(S(=O)(=O)NC(=O)NC(Cc2ccc(O)c(O)c2)C(=O)O)cc1` (stereo not given), the GI50 with SF-295 is > 100 µM (inactive); in the test on NCI-H23, > 100 µM (inactive); in the test with OVCAR-3, > 100 µM (inactive); in the test with RXF 393, 14 µM (inactive); in the test with Malme-3M it was > 100 µM (inactive); with SK-MEL-5 it was > 100 µM (inactive). Moreover, the GI50 in the test on IGROV-1 was > 100 µM (inactive); in the test on HCT-15 it was more than 100 µM; in the test on SK-MEL-28, > 100 µM (inactive); with T47D, > 100 µM (inactive); in the test with NCI-H522, > 100 µM (inactive); with EKVX, > 100 µM (inactive). The GI50 was > 100 µM (inactive) with UO-31; 55.7 µM (inactive) in the test with RPMI-8226; 24.9 µM (inactive) in the test on SW-620; 80.5 µM (inactive) in the test with HOP-92; > 100 µM (inactive) in the test on HOP-62.

With `COC(=O)/C=C/CCC#Cc1ccccc1C#CCC/C=C/C(=O)OC`, the GI50 was 13.2 µM (inactive) in the test with SF-295; 4.78 µM (inactive) in the test on NCI-H23; 3.58 µM (inactive) with OVCAR-3; 4.49 µM (inactive) in the test on RXF 393; 3.9 µM (inactive) with Malme-3M; 4.88 µM (inactive) with IGROV-1. For the same compound, the GI50 in the test on HCT-15 was 3.98 µM; in the test with SK-MEL-28, 47.5 µM (inactive); in the test on T47D, 4.07 µM (inactive); with NCI-H522 it was 3.57 µM (inactive); with SNB-75, 2.89 µM (inactive); in the test on EKVX, 36.1 µM (inactive). The GI50 is 19.5 µM (inactive) in the test on UO-31; 4.89 µM (inactive) in the test with SW-620; 15.7 µM (inactive) with HOP-92; 24.2 µM (inactive) in the test on HOP-62; 10.5 µM (inactive) in the test with SF-539.

For `N#CC(C#N)=c1c(=O)c2c3ccccc3cc3cccc1c32`, the GI50 is > 100 µM (inactive) with NCI-H23; > 100 µM (inactive) in the test on OVCAR-3; 31.5 µM (inactive) in the test on Hs-578T; > 100 µM (inactive) with SK-MEL-5; 40.6 µM (inactive) in the test on IGROV-1; more than 100 µM with HCT-15. The GI50 is 89.9 µM (inactive) with SK-MEL-28; > 100 µM (inactive) with T47D; > 100 µM (inactive) with SNB-75; > 100 µM (inactive) in the test with RPMI-8226; > 100 µM (inactive) in the test with SW-620; > 100 µM (inactive) with HOP-92. For the same compound, the GI50 in the test on HOP-62 was 29 µM (inactive).

`C1=C(c2ccccc2)NC2=N[C@H]3CCCC[C@@H]3N2C1c1ccccc1` (stereo not given in full): the GI50 with SF-295 is 13 µM (inactive); in the test on NCI-H23, 12.7 µM (inactive); with OVCAR-3 it was 13.1 µM (inactive); with Hs-578T, 17.2 µM (inactive); in the test with Malme-3M, 12.8 µM (inactive); in the test on SK-MEL-5 it was 14.6 µM (inactive). Also, the GI50 in the test on IGROV-1 is 13 µM (inactive); in the test on HCT-15 it was 11.4 µM; in the test with SK-MEL-28, 14.3 µM (inactive); in the test on T47D, 16.4 µM (inactive); with SNB-75, 11.3 µM (inactive); in the test with EKVX it was 14.4 µM (inactive). The GI50 with UO-31 is 12.2 µM (inactive); in the test with RPMI-8226, 4.82 µM (inactive); in the test with SW-620, 13.2 µM (inactive); with HOP-92, 12.7 µM (inactive).

On to `CCCC(=O)Nc1cc([N+](=O)[O-])c([N+](=O)[O-])cc1OC`, for which the GI50 was 10.1 µM (inactive) with SF-295; 18.2 µM (inactive) with NCI-H23; 14.6 µM (inactive) in the test with OVCAR-3; 14.4 µM (inactive) in the test on Hs-578T; 16.6 µM (inactive) in the test with SK-MEL-5; 20.9 µM (inactive) in the test on IGROV-1. Besides, the GI50 with HCT-15 was 8.87 µM; in the test on SK-MEL-28, 17 µM (inactive); in the test with T47D it was 3.8 µM (inactive); with NCI-H522, 12.9 µM (inactive); in the test with SNB-75, 16.7 µM (inactive); in the test with EKVX it was 17.7 µM (inactive). In addition, the GI50 in the test on UO-31 was 1.75 µM (inactive); in the test with RPMI-8226, 19.8 µM (inactive); in the test on SW-620 it was 22.4 µM (inactive); in the test with HOP-62, 12.6 µM (inactive); in the test with SF-539, 20 µM (inactive).

For `Cc1ccc2c(c1)C(=O)c1[nH]c3ccc(F)cc3c1CO2`, the GI50 with SF-295 is 11.4 µM (inactive); with NCI-H23, 25.2 µM (inactive); with OVCAR-3 it was 36.6 µM (inactive); in the test with Hs-578T, 17.6 µM (inactive); in the test on Malme-3M it was 26.3 µM (inactive); in the test on SK-MEL-5, > 100 µM (inactive). The GI50 in the test with IGROV-1 is 30.3 µM (inactive); with HCT-15, more than 100 µM; in the test on SK-MEL-28 it was 97.1 µM (inactive); with T47D, 21.3 µM (inactive); in the test on NCI-H522, 36.6 µM (inactive); with SNB-75, 10.3 µM (inactive). Besides, the GI50 is 67.6 µM (inactive) with EKVX; > 100 µM (inactive) with UO-31; 39.9 µM (inactive) in the test with RPMI-8226; 24.4 µM (inactive) with SW-620; 81.8 µM (inactive) in the test on HOP-92; 10.1 µM (inactive) in the test on HOP-62. The GI50 in the test with SF-539 is 13.9 µM (inactive).

As to `CN(N)C(=O)NCCCl`, the GI50 in the test on SF-295, with NCI-H23, with OVCAR-3, in the test on Hs-578T, in the test on RXF 393 and in the test on Malme-3M was > 100 µM (inactive) in each case. In addition, the GI50 is > 100 µM (inactive) in the test on SK-MEL-5; > 100 µM (inactive) in the test with IGROV-1; more than 100 µM in the test on HCT-15; > 100 µM (inactive) with SK-MEL-28; > 100 µM (inactive) with NCI-H522; > 100 µM (inactive) in the test on SNB-75. Moreover, the GI50 in the test with EKVX, with UO-31, in the test on RPMI-8226, in the test with SW-620, in the test with HOP-92 and in the test with HOP-62 was > 100 µM (inactive) each time. The GI50 with SF-539 was > 100 µM (inactive).

Turning to `Cc1cc(=O)c2cc(/N=C/c3ccc([N+](=O)[O-])o3)ccc2o1`, the GI50 in the test on SF-295 was > 100 µM (inactive); in the test with NCI-H23 it was > 100 µM (inactive); in the test with OVCAR-3, > 100 µM (inactive); with Hs-578T it was > 100 µM (inactive); in the test with Malme-3M it was 30 µM (inactive); in the test with SK-MEL-5 it was > 100 µM (inactive). For the same compound, the GI50 in the test on IGROV-1 was > 100 µM (inactive); in the test with HCT-15, 88.3 µM; with SK-MEL-28, > 100 µM (inactive); with T47D it was > 100 µM (inactive); in the test on NCI-H522, 64.6 µM (inactive); in the test on SNB-75, > 100 µM (inactive). Besides, the GI50 in the test with EKVX was > 100 µM (inactive); with UO-31 it was > 100 µM (inactive); in the test on RPMI-8226 it was 35.5 µM (inactive); in the test with SW-620, 63.5 µM (inactive); in the test with HOP-92, > 100 µM (inactive); in the test on HOP-62, > 100 µM (inactive). Also, the GI50 with SF-539 was > 100 µM (inactive).

`O=C(O)c1ccccc1/C=N\N=C1NCCN1`: the GI50 with SF-295, in the test with NCI-H23, with OVCAR-3, with Hs-578T, with Malme-3M and in the test on SK-MEL-5 was > 100 µM (inactive) throughout. The GI50 is > 100 µM (inactive) in the test with IGROV-1; more than 100 µM in the test with HCT-15; > 100 µM (inactive) with T47D; > 100 µM (inactive) in the test on NCI-H522; > 100 µM (inactive) with SNB-75; > 100 µM (inactive) with EKVX. Further, the GI50 in the test with UO-31 is 40.9 µM (inactive); in the test with RPMI-8226, > 100 µM (inactive); in the test on SW-620, > 100 µM (inactive); with HOP-92, > 100 µM (inactive); in the test on HOP-62, > 100 µM (inactive); in the test on SF-539, > 100 µM (inactive).

With `CCOC(=O)c1cn2c(n1)sc1cc(OC)ccc12`, the GI50 was 7.18 µM (inactive) in the test on SF-295; > 47.5 µM (inactive) in the test on NCI-H23; 3.85 µM (inactive) in the test with OVCAR-3; 21 µM (inactive) in the test with Hs-578T; 13.8 µM (inactive) with RXF 393; 27.6 µM (inactive) in the test with Malme-3M. In addition, the GI50 in the test on SK-MEL-5 is 2.72 µM (inactive); with IGROV-1, 26.7 µM (inactive); in the test with HCT-15, 3.89 µM; in the test on SK-MEL-28, > 100 µM (inactive); in the test with NCI-H522 it was 18 µM (inactive); in the test with SNB-75, 33.2 µM (inactive). In addition, the GI50 in the test on EKVX is > 53.3 µM (inactive); in the test on UO-31, 10.9 µM (inactive); in the test with RPMI-8226, 4.08 µM (inactive); in the test with SW-620, 3.08 µM (inactive); in the test on HOP-92, > 100 µM (inactive); in the test on HOP-62, 13 µM (inactive). For the same compound, the GI50 with SF-539 was 2.95 µM (inactive).
